Values of other authors in patent publication US8642081B2, “Chewable, suckable and swallowable tablet containing a calcium-containing compound as an active substance” (Takeda Nycomed AS, priority 2004, dated 2014).

Tested on: treated patients
Details: annual injections of 150.000-300.000 IU

vitamin D
overall fracture rate: significant reduction
rate of hip fracture: not
